In patent US20250346643A1, “TROPOMYOSIN KINASE RECEPTOR (TRK) LIGANDS AS THERAPEUTICS TO SUPPORT LIVER REGENERATION” (Vanderbilt University, priority 2024, published 2025):

Assays:
[1] = in vivo, cited from earlier work
[2] = target: T1, TrkB (Homo sapiens, UniProt Q16620); settings: read-out: Kd (agonist of TrkB); cited from earlier work
[3] = target: T1, TrkB; settings: cited from earlier work
[4] = target: T1, TrkB; settings: read-out: IC50 for inhibition of BDNF binding to TrkB; cited from earlier work
[5] = system: AML12 cells; assay: Cell proliferation assay (CellTiter-Glo) in AML12 cells; format: cell-based, mouse; settings: Loxo-195 final concentration 5 nM, AML12
Experimental: (§1) Cell lines. Human HepG2 (ATCC HB-8065) were maintained in MEM media with 10% FBS and the mouse hepatocyte cell line AML12 (ATCC, Manassas, VA; CRL-2254) in DMEM/F12 media supplemented with dexamethasone (40 ng/ml) and Insulin-Transferrin-Selenium (Gibco, Waltham, MA; 41400045), containing 10% FBS and 1% penicillin and streptomycin. JS1 (RRID: CVCL_C7PL), LX2 (RRID: CVCL_5792, MilliporeSigma, Burlington, MA; SCC064) and TWNT4 (RRID: CVCL_W296) cells were cultured in DMEM supplemented with 10% FBS. 293T cells (ATCC, Manassas, VA; CRL-3216) were cultured in DMEM supplemented with 10% FBS.
(§2) Cell proliferation assays. Primary mouse hepatocytes, HepG2 or AML 12 cells were grown in opaque-walled 96-well plates. NTF3 (final concentration 20 ng/ml) (STEMCELL Technologies, Vancouver, Canada; cat. 78074) and/or Loxo-195 (final concentration 5 nM) (Selleckchem, Houston, TX; S8636) were added into complete growth media without L-glutamine. Primary mouse hepatocytes were also grown in serum-free William's E media without supplements. Cells were analyzed by CellTiter-Glo® (Promega G7570, Madison, WI) which detects the number of viable cells on day 0 to day 5 by on detection systems GloMax® (Promega) or Bioteck Synergy H1 (Agilent, Santa Clara, CA). Mouse recombinant HGF (Abcam, Cambridge, UK; ab281797) was added to cell culture media at a final concentration 5 ng/ml. […]

[6] = system: CCND1; assay: Western blot of CCND1 in HepG2 cell lysates; format: cell-based, human; settings: HepG2, Loxo-195 5-10 nM added to NTF3
Experimental: Human HepG2 and mouse AML12 cells were grown in 6-well plates. Cells were treated with NTF3 (20 ng/ml) purchased from STEMCELL technologies, Vancouver, Canada (cat. 78074), R&D Systems, Minneapolis, MN (267-N3), Gibco, Waltham, MA (PHC7036) and/or Loxo-195 (5-10 nM) (Selleckchem, Houston, TX; S8636) in complete growth media without L-glutamine for 2 hours. Lyophilized NTF3 was solubilized with sterile filtered PBS supplemented with 0.1% BSA, aliquoted and stored at −80° C. until use. […] HepG2 and AML12 cells were collected on ice in PBS, centrifuged for 10 sec […] cell pellet homogenized in RIPA buffer containing inhibitors (Roche, Basel, Switzerland; complete Mini proteinase inhibitor, 1×HALT phosphatase inhibitors, Thermo Scientific, Waltham, MA; cat. 78428). Cell lysates were sonicated and centrifuged for 10 min at 18,800×g. Protein concentration of supernatants were determined by Direct Detect Spectrophotometer (MilliporeSigma, Burlington, MA).
For immunoblot analysis, 30-50 μg of protein diluted in LSD sample buffer (Invitrogen, Waltham, MA) were analyzed per SDS-PAGE (NuPAGE™, Invitrogen, Waltham, MA) using MOPS buffer or MES buffer (Invitrogen, Waltham, MA). Gels were stained with Coomassie (Bio-Safe Coomassie G-250 Stain, Bio-Rad, Hercules, CA) and transferred onto PVDF membranes using semi-dry blotting (Trans-Blot SD, Bio-Rad, Hercules, CA). Images were visualized on an Amersham™ Imager 680 (Cytiva, Marlborough, MA). Semi-quantitative band densitometry was performed using ImageJ software (version 1.53).

[7] = system: HepG2 cells; assay: Cell proliferation assay (CellTiter-Glo) in HepG2 cells; format: cell-based, human; settings: Loxo-195 final concentration 5 nM, HepG2
Experimental: as §1, §2

[8] = system: P-TRKA Tyr674/675, P-TRKB Tyr706/707; assay: Western blot of phosphorylated TRK in HepG2 cell lysates; format: cell-based, human; settings: HepG2, Loxo-195 added to NTF3
Experimental: Human HepG2 and mouse AML12 cells were grown in 6-well plates. […] Lyophilized NTF3 was solubilized with sterile filtered PBS supplemented with 0.1% BSA, aliquoted and stored at −80° C. until use. […] Cell lysates were sonicated and centrifuged for 10 min at 18,800×g. Protein concentration of supernatants were determined by Direct Detect Spectrophotometer (MilliporeSigma, Burlington, MA).
For immunoblot analysis, 30-50 μg of protein diluted in LSD sample buffer (Invitrogen, Waltham, MA) were analyzed per SDS-PAGE (NuPAGE™, Invitrogen, Waltham, MA) using MOPS buffer or MES buffer (Invitrogen, Waltham, MA). Gels were stained with Coomassie (Bio-Safe Coomassie G-250 Stain, Bio-Rad, Hercules, CA) and transferred onto PVDF membranes using semi-dry blotting (Trans-Blot SD, Bio-Rad, Hercules, CA). Images were visualized on an Amersham™ Imager 680 (Cytiva, Marlborough, MA).

[9] = system: CCND1 and PCNA; assay: Immunoblotting of HDOs for CCND1 and PCNA; format: cell-based, human; settings: co-incubation with torin2
Experimental: Human ductal organoids. The normal human liver tissue was obtained through the Cooperative Human Tissue Network (CHTN) at Vanderbilt University Medical Center. The liver was cut into very small pieces in liver digestion medium (Gibco, Waltham, MA; 17703-034). The cell suspension was filtered through a 100-μm cell strainer. The flow through was then centrifuged for 2 min at 100 g, 4° C., and the cell pellet resuspended in ice-cold DMEM (Gibco, Waltham, MA; 11885-084, supplemented by 5% FBS) and centrifuged for 2 min at 300 g. The cell pellet was gently resuspended in Matrigel® (Corning, Corning, NY; 356231) and a […] dome plated in a 24-well plate. The plate was incubated for 10-15 min at 37° C. […]
(§3) Immunoblotting. […] Protein concentration of supernatants was determined by Direct Detect Spectrophotometer (MilliporeSigma, Burlington, MA). […] The protein concentration of supernatants was determined by a Direct Detect® spectrophotometer (MilliporeSigma, Burlington, MA). For immunoblot analysis, 10 to 50 μg of protein diluted in […] sample buffer (Invitrogen, Waltham, MA) were analyzed per SDS-polyacrylamide gel electrophoresis (NuPAGE™, Invitrogen, Waltham, MA) using Mops buffer or MES buffer (Invitrogen, Waltham, MA). […] Semi-quantitative band densitometry was performed using ImageJ software (version 1.53).

[10] = system: mTORC1; assay: Immunoblotting of HDOs for P-S6RP and P-P70S6K (mTORC1 activation); format: cell-based, human
Experimental: Human ductal organoids. The normal human liver tissue was obtained through the Cooperative Human Tissue Network (CHTN) at Vanderbilt University Medical Center. The liver was cut into very small pieces in liver digestion medium (Gibco, Waltham, MA; 17703-034). The cell suspension was filtered through a 100-μm cell strainer. The flow through was then centrifuged for 2 min at 100 g, 4° C., and the cell pellet resuspended in ice-cold DMEM (Gibco, Waltham, MA; 11885-084, supplemented by 5% FBS) and centrifuged for 2 min at 300 g. The cell pellet was gently resuspended in Matrigel® (Corning, Corning, NY; 356231) and a […] dome plated in a 24-well plate. The plate was incubated for 10-15 min at 37° C. After solidifying, complete HepatiCult™ Organoid Initiation Medium (OIM) (STEMCELL Technologies, Vancouver, Canada; 100-0384) was added. For passaging, the Matrigel dome was dissociated using TrypLE (Thermo Fisher Scientific, Waltham, MA; 12604013) and incubated at 37° C. for 5 mins. Organoids were washed by resuspending in advanced DMEM/F12 and consecutive resuspension of the organoid pellet. Organoids were resuspended at a 1:10 dilution in Matrigel® and cultured in complete HepatiCult™ Organoid Growth Medium (OGM) (STEMCELL Technologies, Vancouver, Canada; 100-0385) for organoid expansion. For hepatocytic differentiation of hepatic ductal organoids, culture medium was changed to complete HepatiCult™ Organoid Differentiation Medium (ODM) (STEMCELL Technologies, 100-0383) 4 days after passaging. Vehicle, NTF3, BDNF, HGF (20 ng/ml final concentration) or Taletrectinib (Fisher Scientific, Waltham, MA; 502030245, final concentration 10 nM) or torin2 (Fisher Scientific, Waltham, MA; s2817, final concentration 25 nM) were diluted in William's E (without L-glutamine) and added to organoids.
Immunoblotting. HDOs and mpPHH were homogenized in RIPA buffer containing proteinase inhibitors (Roche, Basel, Switzerland; cOmplete™ Mini protease inhibitor, 2 tab/10 ml buffer) and 1×HALT phosphatase inhibitors (Thermo Fisher Scientific, Waltham, MA; catalog no. 78428). Lysates were sonicated and then centrifuged for 10 min at 18,800 g. Protein concentration of supernatants was determined by Direct Detect Spectrophotometer (MilliporeSigma, Burlington, MA). HDOs were treated with growth factors as described above. Lyophilized NTF3 was solubilized with sterile-filtered PBS supplemented with 0.1% BSA, aliquoted, and stored at −80° C. until use. […] HDOs and mpPHH were collected on ice in PBS and centrifuged for 10 s, and the cell pellet was homogenized in RIPA buffer containing inhibitors (Roche, Basel, Switzerland; cOmplete™ Mini protease inhibitor, 1×HALT phosphatase inhibitors, Thermo Fisher Scientific, Waltham, MA; catalog no. 78428). Cell lysates were sonicated and centrifuged for 10 min at 18,800 g. The protein concentration of supernatants was determined by a Direct Detect® spectrophotometer (MilliporeSigma, Burlington, MA). For immunoblot analysis, 10 to 50 μg of protein diluted in […] sample buffer (Invitrogen, Waltham, MA) were analyzed per SDS-polyacrylamide gel electrophoresis (NuPAGE™, Invitrogen, Waltham, MA) using Mops buffer or MES buffer (Invitrogen, Waltham, MA). […] Semi-quantitative band densitometry was performed using ImageJ software (version 1.53).

[11] = system: mTOR; assay: Immunoblotting of mpPHH for P-S6RP and P-P70S6K (mTOR activation); format: cell-based, human; settings: co-incubation with Torin2
Experimental: (§4) Mouse passaged primary human hepatocytes. Mouse-passaged primary human hepatocytes (mpPHHs) were collected as previously described (Michailidis et al., Proc Natl Acad Sci USA. 2020; 117(3): 1678-1688) and cultured in hepatocyte culture media (CC-3198, Lonza, Basel, Switzerland) in collagen-coated chamber slides. Three days before treatment, mpPHH were incubated in William's E media (with L-glutamine). […] 5-15 images per treatment per experiment were randomly taken and EdU positive nuclei quantified.
as §3

[12] = system: CCND1 and PCNA; assay: Immunoblotting of mpPHH for CCND1 and PCNA; format: cell-based, human; settings: mpPHHs, co-incubation with torin2
Experimental: as §4, §3

[13] = system: proliferating HSCs; settings: Gfap-Tk mice, carbon tetrachloride and allyl alcohol for 10 days, co-administration of ganciclovir; cited from earlier work
[14] = target: TRKB (tropomyosin receptor kinase B, encoded by Ntrk2) on primary mouse hepatocytes (mouse) (UniProt P15209); assay: cell-based or functional assay
Sequence of TRKB (tropomyosin receptor kinase B, encoded by Ntrk2) on primary mouse hepatocytes (mouse) (P15209 32-821): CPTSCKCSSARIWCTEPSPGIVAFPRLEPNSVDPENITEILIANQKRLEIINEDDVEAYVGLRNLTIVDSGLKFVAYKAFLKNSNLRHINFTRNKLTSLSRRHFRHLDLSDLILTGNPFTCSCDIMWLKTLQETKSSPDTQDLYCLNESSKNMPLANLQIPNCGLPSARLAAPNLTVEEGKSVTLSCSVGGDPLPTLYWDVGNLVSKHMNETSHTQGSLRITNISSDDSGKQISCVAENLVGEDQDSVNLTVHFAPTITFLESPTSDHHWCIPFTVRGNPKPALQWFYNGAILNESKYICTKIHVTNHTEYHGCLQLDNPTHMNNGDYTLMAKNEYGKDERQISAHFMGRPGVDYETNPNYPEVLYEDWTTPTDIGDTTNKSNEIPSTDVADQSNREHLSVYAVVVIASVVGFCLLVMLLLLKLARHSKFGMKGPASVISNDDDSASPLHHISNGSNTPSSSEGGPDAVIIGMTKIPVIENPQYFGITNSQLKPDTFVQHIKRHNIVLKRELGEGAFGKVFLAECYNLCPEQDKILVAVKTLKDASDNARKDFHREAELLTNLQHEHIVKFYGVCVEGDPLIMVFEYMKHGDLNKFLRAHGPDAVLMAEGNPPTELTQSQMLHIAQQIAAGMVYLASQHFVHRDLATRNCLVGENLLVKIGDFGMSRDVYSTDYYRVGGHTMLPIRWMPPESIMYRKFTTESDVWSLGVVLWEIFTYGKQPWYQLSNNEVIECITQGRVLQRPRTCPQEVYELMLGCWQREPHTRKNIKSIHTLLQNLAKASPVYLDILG

T1 sequence (Q16620 32-822, species assumed): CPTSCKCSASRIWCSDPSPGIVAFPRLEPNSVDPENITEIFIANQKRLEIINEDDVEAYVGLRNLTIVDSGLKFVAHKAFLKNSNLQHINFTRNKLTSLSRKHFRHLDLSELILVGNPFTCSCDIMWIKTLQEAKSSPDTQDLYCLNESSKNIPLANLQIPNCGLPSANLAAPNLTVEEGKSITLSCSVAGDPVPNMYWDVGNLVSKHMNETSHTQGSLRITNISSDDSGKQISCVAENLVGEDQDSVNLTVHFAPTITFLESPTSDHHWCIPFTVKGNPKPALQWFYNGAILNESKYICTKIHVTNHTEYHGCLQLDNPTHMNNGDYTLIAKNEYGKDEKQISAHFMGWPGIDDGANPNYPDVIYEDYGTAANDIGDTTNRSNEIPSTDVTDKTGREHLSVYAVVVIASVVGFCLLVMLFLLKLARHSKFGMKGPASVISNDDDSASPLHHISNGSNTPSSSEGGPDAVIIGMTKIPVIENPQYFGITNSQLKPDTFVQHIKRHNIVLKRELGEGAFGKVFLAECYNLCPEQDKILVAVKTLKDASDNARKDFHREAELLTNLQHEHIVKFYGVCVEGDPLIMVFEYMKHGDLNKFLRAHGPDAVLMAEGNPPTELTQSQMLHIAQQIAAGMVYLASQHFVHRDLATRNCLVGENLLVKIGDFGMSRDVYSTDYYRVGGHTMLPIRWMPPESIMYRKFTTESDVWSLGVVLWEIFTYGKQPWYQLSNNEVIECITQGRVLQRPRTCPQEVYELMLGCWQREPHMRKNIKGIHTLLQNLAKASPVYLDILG

## O=c1cc(-c2ccccc2)oc2c(O)c(O)ccc12 [7,8-DHF, 7,8-dihydroxyflavone]
[1]; po
  oral bioavailability: orally bioavailable
[1]
  blood-brain barrier penetration: able to penetrate the blood-brain barrier
[2]
  Kd: ~320 nM

## O=C(NCCO)c1cc(C(=O)NCCO)cc(C(=O)NCCO)c1 [LM22A-4]
[3]; partial agonist of TrkB
  intrinsic activity (IA): about 85%
[3]; read-out: EC50 for TrkB activation
  EC50: 0.2 to 0.5 nM
[4]
  IC50: 47 nM

## C[C@@H]1CCc2ncc(F)cc2[C@H]2CCCN2c2ccn3ncc(c3n2)C(=O)N1 [Loxo-195, reference compound]
[5]
  inhibition of NTF3-induced proliferation: significantly inhibited proliferation
[6]
  effect on NTF3-induced CCND1 abundance: inhibited
[7]
  inhibition of NTF3-induced proliferation: significantly inhibited proliferation
[8]
  effect on NTF3-induced TRK phosphorylation: decreased

## Nc1ccc(-c2ccc3ncc4ccc(=O)n(-c5cccc(C(F)(F)F)c5)c4c3c2)cn1 [Torin2, reference compound]
[9]
  effect on NTF3-induced CCND1 and PCNA: inhibited
[10]; HDO, co-incubation with Torin2 25 nM
  effect on NTF3- or insulin-induced phosphorylation of p70S6 kinase and S6RP: decreased
[10]; HDOs cultured in glutamine free media, coincubation (FIG. 18G), Torin2 25 nM
  phosphorylated S6rp (Ser240/244): decreased phosphorylated S6rp
[11]
  effect on NTF3-induced P-S6RP and P-P70S6K: inhibited
[12]
  effect on NTF3-induced CCND1 and PCNA: inhibited

## Nc1nc(O)c2ncn(COC(CO)CO)c2n1 [ganciclovir]
[13]
  depletion rate of proliferating HSCs: approximately 65%

## recombinant neurotrophin-3 (NTF3) (from UniProt P20783 139-257) (ligand)
[14]
  proliferation of primary mouse hepatocytes (CellTiter-Glo), NTF3 20 ng/ml against vehicle: 1.5 fold
